According to US6723897B2, “Methods for controlling gibberellin levels” (Monsanto Technology, LLC, priority 1998, dated 2004):

Legend:
Type in all cases: in vivo, Glycine max
[1] = test system: constitutively GA-deficient transgenic dwarf soybean line 719; test: Experiment I greenhouse test, seed imbibition, GA-deficient soybean; set-up: Observation on Transgenic Line 719: key: −1: treated plants are shorter as compared to untreated plants; 0: treated plants had the same stature as untreated plants; 1: treated plants are slightly elongated as compared to untreated plants; 2: treated plants are moderately elongated as compared to untreated plants; 3: treated plants are highly elongated as compared to untreated plants; 4: treated plants are extremely elongated as compared to untreated plants; conditions: 0.25 mg/ml; for effect in both the constitutive transgenic dwarf and wild-type soybean lines: imbibition, lines 719 and A3237
Text: Seeds are covered with 0.5″ of vermiculite.

[2] = test system: constitutively GA-deficient transgenic dwarf soybean line 719; test: Experiment II second greenhouse test, seed imbibition, GA-deficient soybean; conditions: seeds imbibed 6 hours
Procedure: (The compounds are tested in Experiment I at only one concentration, i.e., 0.25 mg/ml). Test tubes contained […] of ethanol solution per tube. Final volumes are made up to 30 ml with deionized water. After shaking, the treatment solutions (15 ml each) are transferred to each of two 50 ml test tubes. […] Twenty seeds are used in each treatment. Dry seed, ethanol/water-imbibed seed (1% ethanol in water, v/v), and water-imbibed seeds are included as controls. Seeds are imbibed for 6 hours in the test solutions, then planted in bread pans containing Metromix 350 (The Scotts Company, Marysville, Ohio), and covered with 0.5″ Metro-mix. Covered pans are transferred to the greenhouse and subirrigated. Illumination is at a light intensity of 300-400 μmolm^−2s^−1 photosynthetic photon flux; 16 hours light/8 hours dark. Subsequent waterings are also through sub-irrigation until the test is terminated three weeks later. Observations included the number of dwarf, intermediate, and tall plants; plant height; uniformity of rescue; and any visual effects. Digital photographs are also taken.

[3] = test system: constitutively GA-deficient transgenic dwarf soybeans (line 719); test: Summary of first two greenhouse experiments, rescue of GA-deficient soybeans; set-up: key: +: transgenic soybeans are rescued; 0: transgenic soybeans are not rescued
Procedure: Compounds are first prepared as 25 mg/ml solutions in ethanol as described above, and then diluted into 40 ml of water to prepare the final 0.25 mg/ml treatment solutions. Visual observations on solubilities (milky, clear, etc.) of the treatment solutions are noted. The treatment solutions are divided into two 20 ml portions, each in 50 ml plastic centrifuge tubes. In addition to treating seeds with solutions containing the test compounds, untreated seeds and seeds imbibed in ethanol-water solution (300 μl ethanol in 30 mls of water) are also included in this experiment as controls. In the latter case, 20 seeds are imbibed in 30 mls of solution for six hours.
Two soybean varieties are selected for testing: constitutively GA-deficient transgenic dwarf soybean line 719 (plasmid pMON29801, constitutive FMV promoter/asCPScc; which is a mixture of 719−2 and 719+17), and A3237, the wild-type parent material. […] After imbibition, seeds are removed from the test tubes, placed on wax paper to dry, and planted in bread pans containing farm soil amended with fertilizer at 20 seeds/pan. Seeds are covered with 0.5″ of vermiculite. Pans are transferred to the greenhouse, which had day/night temperatures of 86/68° F. (30/20° C.), and subirrigated. Illumination is at a light intensity of 300-400 μmolm^−2s^−1 photosynthetic photon flux; 16 hours light/8 hours dark. Subsequent waterings are also through sub-irrigation until the test is terminated three weeks later. Observations included the number of dwarf, intermediate, and tall plants; plant height; uniformity of rescue; and any visual effects.
All compounds are tested at final concentrations of 0.25, 0.025, and 0.0025 mg/ml except for GA9, which is tested at 0.125, 0.0125, and 0.00125 mg/ml. (The compounds are tested in Experiment I at only one concentration, i.e., 0.25 mg/ml). Test tubes contained […] of ethanol solution per tube. Final volumes are made up to 30 ml with deionized water. After shaking, the treatment solutions (15 ml each) are transferred to each of two 50 ml test tubes. Treatments 1 to 27 are performed on wild-type line A3237; treatments 28 to 54 are performed on constitutively GA-deficient transgenic dwarf soybean line 719 (a mixture of 719−2 and 719+17). Twenty seeds are used in each treatment. Dry seed, ethanol/water-imbibed seed (1% ethanol in water, v/v), and water-imbibed seeds are included as controls. Seeds are imbibed for 6 hours in the test solutions, then planted in bread pans containing Metromix 350 (The Scotts Company, Marysville, Ohio), and covered with 0.5″ Metro-mix. Covered pans are transferred to the greenhouse and subirrigated. Illumination is at a light intensity of 300-400 μmolm^−2s^−1 photosynthetic photon flux; 16 hours light/8 hours dark. Subsequent waterings are also through sub-irrigation until the test is terminated three weeks later. Observations included the number of dwarf, intermediate, and tall plants; plant height; uniformity of rescue; and any visual effects. Digital photographs are also taken.

[4] = test system: wild-type A3237 soybean; test: Hilum treatment of soybean seeds, seedling growth and development, wild-type soybean; set-up: key to Emergence timing / Hypocotyl length (6 DAP) / 1st internode length (12 DAP) / 3rd internode length (20 DAP): pos: emergence faster/stem segment longer than controls; 0: emergence timing/stem segment length similar to controls; neg: emergence slower/stem segment shorter than controls; conditions: for 1st internode length (12 DAP) / Emergence timing / Hypocotyl length (6 DAP): single rate per compound 8.3-16.5 μg/seed
Procedure: In the previous experiments, the effect of various GA compounds on transgenic, GA-deficient and wild-type soybean is evaluated by treating seeds with these compounds via imbibition. Several of these compounds are not completely soluble in water, which limited the interpretation of their utility in rescuing GA-deficient dwarf plants. The purpose of this experiment is to reevaluate selected, previously tested compounds, and additional compounds, by introducing them to the seed via the hilum. As shown by the results presented below, direct application of small quantities of GA compounds dissolved in an organic solvent to the hilum is an effective method of treating soybean seeds. As in the previously described experiments, comparison is made between activity on GA-deficient soybean seedlings and normal (wild-type) seedlings. […] soybean seeds are supplied by Asgrow Seed Company (Des Moines, Iowa). Seed of GA-deficient transgenic soybean line 719 is created by transformation of […] soybean with pMON29801 (FMV/antisense CPScc). Fifth generation seed (R5) is used for these experiments. […] When multiple droplets are applied, each 1 μl droplet is allowed to dry before subsequent droplets are added. Ethanol minus compound is used a treatment control. […] (29° C.) and 75° F. (24° C.), respectively. Emergence timing is measured by counting the number of emerged seedlings at different times after planting. Emergence is defined as the presence of cotyledons raised to soil level or above. […] To assess the ability of a seed treatment to deliver biological activity beyond the first internode, measurements are taken on selected treatments after prolonged growth and development.

[5] = 0.0025 mg/ml solution (ethanol-water)
[6] = 0.025 mg/ml solution (ethanol-water)
[7] = 0.25 mg/ml solution (ethanol-water)

| SMILES | effect in both the constitutive transgenic dwarf and wild-type soybean lines [1] | Observation on Transgenic Line 719 ([1]; seeds imbibed 5 hours) | Significant Visual Observations on Line 719 ([2]; 0.0025 mg/ml) | Significant Visual Observations on Line 719 ([2]; 0.025 mg/ml) | Significant Visual Observations on Line 719 ([2]; 0.25 mg/ml) | Rescue of GA-deficient soybeans [3, 5] | Rescue of GA-deficient soybeans [3, 6] | 1st internode length (12 DAP) [4] | Emergence timing [4] | Hypocotyl length (6 DAP) [4] | Rescue of GA-deficient soybeans [3, 7] | Lowest rate where biological activity is observed, 1st internode length (10 DAP) ([4]; rate response) [μg/seed] | Lowest rate where biological activity is observed, emergence timing ([4]; rate response) [μg/seed] | Lowest rate where biological activity is observed, hypocotyl length (5 DAP) ([4]; rate response) [μg/seed] | also measured |
| --- | --- | --- | --- | --- | --- | --- | --- | --- | --- | --- | --- | --- | --- | --- | --- |
| C=C1C[C@@]23CC[C@H]4[C@@](C)(CCC[C@@]4(C)C(=O)O)[C@@H]2CC[C@@H]1C3 [kaurenoic acid] | rescue (elongated hypocotyls) with very little elongation | 1 | Poor rescue | Poor rescue | Poor rescue | 0 | 0 | 0 | 0 | 0 |  |  |  |  | Observation on Transgenic Line 719, remark in words ([1]; seeds imbibed 5 hours): some rescue |
| C=C1C[C@]23C[C@H]1CC[C@H]2[C@]1(C)CCC[C@@](C)(C(=O)O)[C@H]1[C@@H]3C(=O)O [GA12] | rescue (elongated hypocotyls) with very little elongation | 1 | Poor rescue | Incomplete rescue | good rescue, with no overelongation | 0 | + | 0 | neg | neg | + |  |  |  |  |
| C=C1C[C@]23C[C@@]1(O)CC[C@H]2[C@@]12C=C[C@H](OC(C)=O)[C@@](C)(C(=O)O1)[C@H]2[C@@H]3C(=O)O [GA3-3-acetate] | excessive elongation | 3 | good rescue, with no overelongation | Poor rescue | Excessive elongation | + | + | 0 | pos | pos | + |  |  |  |  |
| C=C1C[C@]23C[C@H]1CC[C@H]2[C@@]12CCC[C@@](C)(C(=O)O1)[C@H]2[C@@H]3C(=O)O [GA9] | excessive elongation | 3 |  |  |  |  |  | 0 | pos | pos | + | 1 | 0.1 | 1 | Significant Visual Observations on Line 719 ([2]; 0.00125 mg/ml): Poor rescue; Significant Visual Observations on Line 719 ([2]; 0.0125 mg/ml): Good rescue of dwarfs; Significant Visual Observations on Line 719 ([2]; 0.125 mg/ml): good rescue, with no overelongation; Rescue of GA-deficient soybeans ([3]; 0.00125 mg/ml solution (ethanol-water)): 0; Rescue of GA-deficient soybeans ([3]; 0.0125 mg/ml solution (ethanol-water)): +; Rescue of GA-deficient soybeans ([3]; 0.125 mg/ml solution (ethanol-water)): + |
| C=C1C[C@]23C[C@@]1(O)CC[C@H]2[C@@]12C=C[C@H](O)[C@@](C)(C(=O)O1)[C@H]2[C@@H]3C(=O)O [GA3, gibberellic acid] | excessive elongation | 3 | Excessive elongation | Excessive elongation | Excessive elongation | + | + | 0 | pos | pos | + | 1 | 0.1 | 0.1 |  |
| C=C1C[C@]23C[C@@]1(O)CC[C@H]2[C@@]12CC=C[C@@](C)(C(=O)O1)[C@H]2[C@@H]3C(=O)O [GA5] | excessive elongation | 4 | Good rescue of dwarfs | good rescue, with no overelongation | Excessive elongation | + | + | pos | pos | pos | + | 1 | 0.1 | 1 | 3rd internode length (20 DAP) ([4]; rate 9.7 μg/seed): pos; Lowest rate where biological activity is observed, 3rd internode length (20 DAP) ([4]; rate response): 1 μg/seed |
